Data published in the supplement of paper PMC10307832.

How the values were obtained:
Test in all cases: relative viability (nuclei count vs DMSO), 5 days (fraction); higher = more cells survive
Doramapimod + Linsitinib = compound: Cc1ccc(-n2nc(C(C)(C)C)cc2NC(=O)Nc2ccc(OCCN3CCOCC3)c3ccccc23)cc1 [Doramapimod] + C[C@]1(O)C[C@@H](c2nc(-c3ccc4ccc(-c5ccccc5)nc4c3)c3c(N)nccn32)C1 [Linsitinib] (partner 1 µM)
Procedure, shortened: (§1)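 Nuclei were stained with Hoechst during a one-step fixation (final 0.05% Triton X-100, 1% formaldehyde, 1 ug/ml Hoechst) carried out 5 days after dosing, then counted on 4× images. The cells, lung cancer lines in 1536-well plates, had been dosed by pin tool the day after seeding with one drug alone or a fixed anchor-drug dose plus five library-drug doses (not always all listed) in √10 steps. Relative viability is the nuclei count in treated wells divided by that in vehicle wells, and each value is the median of duplicate plates.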

RAF265 + OSI-027 = compound: Cn1c(Nc2ccc(C(F)(F)F)cc2)nc2cc(Oc3ccnc(-c4ncc(C(F)(F)F)[nH]4)c3)ccc21 [RAF265] + COc1cccc2cc(-c3nc([C@H]4CC[C@H](C(=O)O)CC4)n4ncnc(N)c34)[nH]c12 [OSI-027] (partner 0.5 µM)
Procedure, shortened: as §1

RAF265 + AZD7762 = compound: Cn1c(Nc2ccc(C(F)(F)F)cc2)nc2cc(Oc3ccnc(-c4ncc(C(F)(F)F)[nH]4)c3)ccc21 [RAF265] + NC(=O)Nc1cc(-c2cccc(F)c2)sc1C(=O)N[C@H]1CCCNC1 [AZD7762] (partner 0.2 µM)
Procedure, shortened: as §1

RAF265 + Pemetrexed = compound: Cn1c(Nc2ccc(C(F)(F)F)cc2)nc2cc(Oc3ccnc(-c4ncc(C(F)(F)F)[nH]4)c3)ccc21 [RAF265] + Nc1nc2[nH]cc(CCc3ccc(C(=O)N[C@@H](CCC(=O)O)C(=O)O)cc3)c2c(=O)[nH]1 [Pemetrexed] (partner 0.2 µM)
Procedure, shortened: as §1

Row | Cell Line | relative viability (Doramapimod + Linsitinib; first compound 0.02 µM) | relative viability (Doramapimod + Linsitinib; first compound 0.06325 µM) | relative viability (Doramapimod + Linsitinib; first compound 0.2 µM) | relative viability (Doramapimod + Linsitinib; first compound 0.6325 µM) | relative viability (Doramapimod + Linsitinib; first compound 2 µM) | relative viability (RAF265 + OSI-027; first compound 0.01 µM) | relative viability (RAF265 + OSI-027; first compound 0.03162 µM) | relative viability (RAF265 + OSI-027; first compound 0.1 µM) | relative viability (RAF265 + OSI-027; first compound 0.3162 µM) | relative viability (RAF265 + OSI-027; first compound 1 µM) | relative viability (RAF265 + AZD7762; first compound 0.01 µM) | relative viability (RAF265 + AZD7762; first compound 0.03162 µM) | relative viability (RAF265 + AZD7762; first compound 0.1 µM) | relative viability (RAF265 + AZD7762; first compound 0.3162 µM) | relative viability (RAF265 + AZD7762; first compound 1 µM) | relative viability (RAF265 + Pemetrexed; first compound 0.01 µM) | relative viability (RAF265 + Pemetrexed; first compound 0.03162 µM) | relative viability (RAF265 + Pemetrexed; first compound 0.1 µM) | relative viability (RAF265 + Pemetrexed; first compound 0.3162 µM) | relative viability (RAF265 + Pemetrexed; first compound 1 µM)
1 | NCI-H2085 | 0.898 | 0.939 | 0.873 | 0.876 | 0.864 | 0.948 | 0.68 | 0.841 | 0.552 | 0.83 | 1.06 | 0.879 | 1.05 | 1.1 | 0.857 | 1.09 | 0.768 | 0.938 | 0.806 | 0.903
2 | NCI-H460 | 0.71 | 0.736 | 0.733 | 0.875 | 0.641 | 0.696 | 0.627 | 0.416 | 0.222 | 0.0945 | 0.586 | 0.666 | 0.775 | 0.598 | 0.38 | 0.0601 | 0.0679 | 0.0652 | 0.0628 | 0.0612
3 | Calu-6 | 1.02 | 0.978 | 0.942 | 1.04 | 0.966 | – | – | – | – | – | – | – | – | – | – | – | – | – | – | –
4 | RERF-LC-KJ | 0.871 | 0.912 | 0.899 | 0.952 | 0.864 | 0.548 | 0.52 | 0.423 | 0.349 | 0.381 | 1.1 | 1.03 | 0.765 | 0.756 | 0.557 | 0.504 | 0.482 | 0.503 | 0.46 | 0.51
5 | NCI-H1563 | 1.17 | 1.23 | 1.25 | 1.25 | 1.2 | 0.769 | 0.772 | 0.738 | 0.706 | 0.739 | – | – | – | – | – | 0.943 | 0.886 | 0.77 | 0.779 | 0.699
6 | NCI-H661 | 0.634 | 0.568 | 0.555 | 0.741 | 0.599 | 0.742 | 0.394 | 0.44 | 0.333 | 0.291 | – | – | – | – | – | 0.941 | 0.873 | 0.835 | 0.701 | 0.615
7 | NCI-H2342 | – | – | – | – | – | 0.598 | 0.722 | 0.598 | 0.525 | 0.514 | 0.507 | 0.558 | 0.539 | 0.498 | 0.474 | 0.809 | 0.818 | 0.782 | 0.803 | 0.788
8 | COR-L23 | 0.962 | 0.917 | 0.827 | 0.933 | 0.931 | 0.843 | 0.723 | 0.501 | 0.278 | 0.168 | – | – | – | – | – | 0.188 | 0.206 | 0.202 | 0.182 | 0.184
9 | NCI-H1299 | 1 | 1.04 | 1.01 | 1.06 | 0.985 | – | – | – | – | – | – | – | – | – | – | – | – | – | – | –
10 | SW 1573 | 0.722 | 0.74 | 0.8 | 0.739 | 0.736 | 0.697 | 0.521 | 0.418 | 0.347 | 0.249 | – | – | – | – | – | 0.872 | 0.833 | 0.753 | 0.6 | 0.634
11 | ChaGo-K-1 | – | – | – | – | – | 0.563 | 0.628 | 0.5 | 0.44 | 0.38 | 0.708 | 0.877 | 0.812 | 0.767 | 0.709 | 0.262 | 0.273 | 0.248 | 0.262 | 0.325
12 | SK-MES-1 | 1.08 | 1 | 0.996 | 1.09 | 0.909 | 0.544 | 0.355 | 0.186 | 0.223 | 0.187 | – | – | – | – | – | 0.941 | 0.698 | 0.48 | 0.366 | 0.326
13 | SW 900 | – | – | – | – | – | 0.569 | 0.661 | 0.464 | 0.378 | 0.391 | 0.709 | 0.483 | 0.671 | 0.466 | 0.348 | 0.486 | 0.512 | 0.512 | 0.488 | 0.254
14 | NCI-H2023 | 0.626 | 0.718 | 0.533 | 0.738 | 0.575 | 0.387 | 0.358 | 0.33 | 0.252 | 0.318 | – | – | – | – | – | 0.21 | 0.251 | 0.21 | 0.251 | 0.236
15 | EBC-1 | 0.924 | 0.811 | 0.826 | 0.937 | 0.817 | – | – | – | – | – | – | – | – | – | – | – | – | – | – | –
16 | NCI-H2009 | 1.21 | 1.23 | 1.3 | 1.23 | 1.16 | 0.581 | 0.414 | 0.328 | 0.365 | 0.318 | – | – | – | – | – | 1.01 | 0.955 | 1.02 | 0.965 | 0.885
17 | NCI-H2228 | 0.762 | 0.449 | 0.632 | 0.65 | 0.464 | 0.499 | 0.476 | 0.344 | 0.184 | 0.121 | – | – | – | – | – | 0.325 | 0.353 | 0.303 | 0.297 | 0.268
18 | IA-LM | 0.498 | 0.549 | 0.701 | 0.587 | 0.731 | – | – | – | – | – | – | – | – | – | – | – | – | – | – | –
19 | ABC-1 | 0.876 | 0.944 | 0.744 | 0.942 | 0.806 | 0.39 | 0.48 | 0.365 | 0.408 | 0.31 | 0.993 | 0.771 | 0.798 | 1.06 | 0.47 | – | – | – | – | –
20 | NCI-H520 | 0.937 | 1.11 | 0.838 | 0.963 | 0.897 | 0.248 | 0.255 | 0.287 | 0.299 | 0.224 | – | – | – | – | – | 0.637 | 0.536 | 0.629 | 0.507 | 0.36
21 | NCI-H1703 | 0.637 | 0.601 | 0.68 | 0.908 | 0.532 | – | – | – | – | – | 0.132 | 0.133 | 0.126 | 0.142 | 0.099 | – | – | – | – | –
22 | NCI-H2170 | – | – | – | – | – | 0.74 | 0.512 | 0.623 | 0.333 | 0.452 | 0.876 | 0.72 | 0.761 | 0.363 | 0.615 | 0.245 | 0.258 | 0.263 | 0.261 | 0.251
